Results taken from patent publication US6642389B2, “Oxazole derivatives” (Hoffmann-La Roche Inc., priority 2001, dated 2003).
pEC50, pIC50: −log10 of the molar value.

Assays:
PPARα [1] = molecular target: T1, PPARα (Homo sapiens, UniProt Q07869); test: Luciferase transcriptional reporter gene assay, pFA-PPARα-LBD in BHK21 cells; type: cell-based; design: expressed in transfected cells; host or cells: BHK21 (ATCC CCL10); settings: Gal4-PPARα-LBD
T1 sequence (Q07869 167-468 limits assumed): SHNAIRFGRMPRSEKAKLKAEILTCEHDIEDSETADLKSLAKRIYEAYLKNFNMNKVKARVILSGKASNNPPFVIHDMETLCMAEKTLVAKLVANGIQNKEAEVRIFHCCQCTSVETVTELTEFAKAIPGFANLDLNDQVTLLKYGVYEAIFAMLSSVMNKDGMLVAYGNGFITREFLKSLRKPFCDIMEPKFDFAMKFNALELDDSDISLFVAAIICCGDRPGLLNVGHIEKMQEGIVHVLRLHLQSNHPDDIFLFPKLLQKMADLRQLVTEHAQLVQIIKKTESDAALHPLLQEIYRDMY
Excerpt: (§1) Full-length cDNA clones for human PPARα and mouse PPARγ were obtained by RT-PCR from human adipose and mouse liver cRNA, respectively, cloned into plasmid vectors and verified by DNA sequencing. […] To accomplish this, the portions of the cloned sequences encoding the LBDs were amplified from the full-length clones by PCR and then subcloned into the plasmid vectors pGEX4T-2(Pharmacia) and pFA-CMV(Stratagene). Final clones were verified by DNA sequence analysis.
(§2) Baby hamster kidney cells (BHK21 ATCC CCL10) were grown in DMEM medium containing 10% FBS at 37° C. in a […]:5% CO2 atmosphere. Cells were seeded in 6 well plates at a density of 10^5 Cells/well and then batch-transfected with either the pFA-PPARγ-LBD or pFA-PPARα-LBD expression plasmids plus the pFR-luc reporter plasmid (Stratagene) and an expression plasmid encoding the secretable form of alkaline phosphatase (SEAP) as a normalization control. […] Six hours following transfection, the cells were harvested by trypsinization and seeded in 96 well plates at a density of 10^4 cells/well. After 24 hours to allow attachment of cells, the medium was removed and replaced with 100 ul of phenol red-free medium containing the test substances or control ligands (final. 0.1% DMSO). Following incubation of the cells for 24 hours with substances, 50 ul of the supernatant was recovered and analyzed for SEAP activity (Roche Molecular Biochemicals). The remainder of the supernatant was discarded, 50 ul PBS was added per well followed by one volume of Luciferase Constant-Light Reagent (Roche Molecular Biochemicals) to lyse the cells and initiate the luciferase reaction. Luminescence for both SEAP and luciferase was measured in a Packard TopCount. Luciferase activity was normalized to the SEAP control and transcriptional activation in the presence of a test substance was expressed as fold-activation over cells incubated in the absence of the substance. EC50 values were calculated using the XLfit program (ID Business Solutions Ltd. UK).

PPARγ [2] = molecular target: T2, PPARγ (Mus musculus, UniProt P37238); test: Luciferase transcriptional reporter gene assay, pFA-PPARγ-LBD in BHK21 cells; type: cell-based; settings: Gal4-PPARγ-LBD
T2 construct: expressed in transfected cells; host or cells: BHK21 (ATCC CCL10)
T2 sequence (P37238 204-505): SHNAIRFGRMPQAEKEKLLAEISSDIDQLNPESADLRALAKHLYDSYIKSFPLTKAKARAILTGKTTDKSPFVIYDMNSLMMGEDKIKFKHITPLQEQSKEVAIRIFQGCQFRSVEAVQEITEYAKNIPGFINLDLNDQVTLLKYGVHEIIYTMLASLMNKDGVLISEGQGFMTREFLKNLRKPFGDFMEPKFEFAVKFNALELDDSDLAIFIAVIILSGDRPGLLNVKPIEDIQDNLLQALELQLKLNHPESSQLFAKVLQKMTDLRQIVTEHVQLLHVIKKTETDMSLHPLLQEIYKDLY
Excerpt: as §1, §2

PPARγ [3] = molecular target: T3, PPARγ (Mus musculus, UniProt P37238); test: Radioligand binding assay, PPARγ receptor binding (GST-PPARγ-LBD fusion protein, SPA); settings: scintillation proximity
T3 construct: made in house; host or cells: E. coli BL21(pLysS)
T3 sequence (P37238 174-475 isoform P37238-2): T2 sequence (P37238 204-505)
Excerpt: as §1
(§3) Induction, expression, and purification of GST-LBD fusion proteins were performed in E. coli strain BL21(pLysS) cells by standard methods (Ref: Current Protocols in Molecular Biology, Wiley Press, edited by Ausubel et al.).
PPARγ receptor binding was assayed in TKE50 (50 mM Tris-HCl, pH 8, 50 mM KCl, 2 mM EDTA, 0.1 mg/ml fatty acid-free BSA and 10 mM DTT). For each 96 well reaction an 140 ng equivalent of GST-PPARγ-LBD fusion protein was bound to 10 ug SPA beads (PharmaciaAmersham) in a final volume of 50 ul by shaking. The resulting slurry was incubated for 1 h at RT and centrifuged for 2 min at 1300 g. The supernatant containing unbound protein was removed and the semidry pellet containing the recptor-coated beads was resolved in 50 ul of TKE. For radioligand binding e.g. 10000 dpm 2(S)-(2-benzoyl-phenylamino)-3-{4-[1,1-ditritio-2-(5-methyl-2-phenyl-oxazol-4-yl)-ethoxy]-phenyl}-propionic acid in 50 ul were added, the reaction incubated at RT for 1 h and scintillation proximity counting performed. All binding assays were performed in 96 well plates and the amount of bound ligand measured on a Packard TopCount using OptiPlates (Packard). Nonspecific binding was determined in the presence of 10^−4 M unlabelled compound. Dose response curves were done in triplicates within a range of concentration from 10^−10 M to 10^−4 M.

PPARα [4] = molecular target: T1, PPARα; test: Radioligand binding assay, PPARα receptor binding (GST-PPARα-LBD fusion protein)
Excerpt: as §1, §3
PPARα receptor binding was assayed in TKE10 (10 mM Tris-HCl, pH 8, 50 mM KCl, 2 mM EDTA, 0.1 mg/ml fatty acid free BSA and 10 mM DTT). […]
PPARγ receptor binding was assayed in TKE50 (50 mM Tris-HCl, pH 8, 50 mM KCl, 2 mM EDTA, 0.1 mg/ml fatty acid-free BSA and 10 mM DTT). […] All binding assays were performed in 96 well plates and the amount of bound ligand measured on a Packard TopCount using OptiPlates (Packard). Nonspecific binding was determined in the presence of 10^−4 M unlabelled compound. […]

Structure (SMILES)	pEC50 (PPARα [1])	pEC50 (PPARγ [2])	pIC50 (PPARγ [3])	pIC50 (PPARα [4])	melting point
COC(Cc1ccc(OCCCc2nc(-c3ccc(Cl)cc3)oc2C)c2ccsc12)C(=O)O (racemic) [Example 48, [rac]-3-(4-{3-[2-(4-Chloro-phenyl)-5-methyl-oxazol-4-yl]-propoxy}-benzo[b]thiophen-7-yl)-2-methoxy-propionic acid]	8.10	6.33	5.50		
C/C(=C/C(=O)c1ccc(C(F)(F)F)cc1)NC(Cc1ccc(OCCc2nc(-c3ccccc3)oc2C)c2ccsc12)C(=O)O (racemic) [Example 106, [rac]-2-[1-Methyl-3-oxo-3-(4-trifluoromethyl-phenyl)-(Z)-propenylamino]-3-{4-[2-(5-methyl-2-phenyl-oxazol-4-yl)-ethoxy]-benzo[b]thiophen-7-yl}-propionic acid]	6.86	6.30	6.95	6.59	
CCCCOC(Cc1ccc(OCCc2nc(-c3ccccc3)oc2C)c2ccsc12)C(=O)O (stereo not shown) [Example 4, 2-Butoxy-3-{4-[2-(5-methyl-2-phenyl-oxazol-4-yl)-ethoxy]-benzo[b]thiophen-7-yl}-propionic acid]					123 °C (dec.)
CCCCOC(Cc1ccc(OCCc2nc(-c3ccccc3)oc2C)c2ccccc12)C(=O)O (stereo not shown) [Example 10, 2-Butoxy-3-{4-[2-(5-methyl-2-phenyl-oxazol-4-yl)-ethoxy]-naphthalen-1-yl}-propionic acid]					88 to 90 °C (dec.)
CCO/C(=C\c1ccc(OCCc2nc(-c3ccccc3)oc2C)c2ccoc12)C(=O)O [Example 83, 2Z-Ethoxy-3-{4-[2-(5-methyl-2-phenyl-oxazol-4-yl)-ethoxy]-benzofuran-7-yl}-acrylic acid]	6.13	6.73	7.60	6.96	
